Results as given in ChEMBL document CHEMBL5725512, “Fused bicyclic 1,2,4-triazine compounds as TAM inhibitors” (2017).

biological target: Tyrosine-protein kinase JAK1 (Homo sapiens, UniProt P23458); experiment: JAK1 Assay: As used herein, a selective JAK1 inhibitor is an inhibitor of JAK1 which is selective for JAK1 over JAK2, JAK3 and TYK2. In some embodiments, the compounds or salts are about 10-fold more selective for JAK1 over JAK2. In some embodiments, the compounds or salts are about 10-fold, about 15-fold, or about 20-fold more selective for JAK1 over JAK2 as calculated by measuring IC50 at 1 mM …
Sequence (P23458 whole entry): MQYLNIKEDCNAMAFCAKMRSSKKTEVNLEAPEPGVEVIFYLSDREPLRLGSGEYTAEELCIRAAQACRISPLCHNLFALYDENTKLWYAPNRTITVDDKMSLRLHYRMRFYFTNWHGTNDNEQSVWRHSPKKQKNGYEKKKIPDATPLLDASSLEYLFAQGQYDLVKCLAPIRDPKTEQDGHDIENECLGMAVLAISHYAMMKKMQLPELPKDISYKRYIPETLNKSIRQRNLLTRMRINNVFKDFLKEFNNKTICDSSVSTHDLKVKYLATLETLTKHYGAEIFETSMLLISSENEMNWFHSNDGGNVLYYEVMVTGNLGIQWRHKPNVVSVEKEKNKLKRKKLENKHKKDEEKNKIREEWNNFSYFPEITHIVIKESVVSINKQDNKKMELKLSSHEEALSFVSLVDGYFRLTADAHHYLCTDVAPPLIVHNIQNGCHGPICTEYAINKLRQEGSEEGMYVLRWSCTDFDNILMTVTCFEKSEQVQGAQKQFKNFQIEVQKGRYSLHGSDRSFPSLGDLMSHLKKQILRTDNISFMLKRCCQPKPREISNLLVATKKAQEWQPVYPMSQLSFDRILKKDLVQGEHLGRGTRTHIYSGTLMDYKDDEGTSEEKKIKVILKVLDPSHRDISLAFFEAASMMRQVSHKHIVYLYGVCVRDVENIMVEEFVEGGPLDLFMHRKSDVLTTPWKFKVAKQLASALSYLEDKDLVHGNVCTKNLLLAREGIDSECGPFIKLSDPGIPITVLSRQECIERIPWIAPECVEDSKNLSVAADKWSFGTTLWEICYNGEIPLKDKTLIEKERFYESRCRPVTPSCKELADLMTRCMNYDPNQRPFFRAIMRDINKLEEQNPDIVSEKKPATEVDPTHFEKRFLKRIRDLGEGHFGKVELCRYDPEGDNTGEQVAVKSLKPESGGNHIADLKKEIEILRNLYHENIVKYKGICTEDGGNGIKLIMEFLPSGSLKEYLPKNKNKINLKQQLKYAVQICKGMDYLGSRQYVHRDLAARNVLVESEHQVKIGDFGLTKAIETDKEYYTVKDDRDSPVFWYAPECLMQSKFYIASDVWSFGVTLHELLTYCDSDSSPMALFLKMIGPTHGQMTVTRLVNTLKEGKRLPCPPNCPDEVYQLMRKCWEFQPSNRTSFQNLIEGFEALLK

N#CCC1(n2cc(-c3ncnc4[nH]ccc34)cn2)CN([C@H]2CC[C@@H](Oc3cc(CCO)nc(C(F)(F)F)n3)CC2)C1 and CCNCc1cc(O[C@H]2CC[C@@H](N3CC(CC#N)(n4cc(-c5ncnc6[nH]ccc56)cn4)C3)CC2)nc(C(F)(F)F)c1 cannot be ordered by IC50: < 0.01 µM for the first, < 0.01 µM for the second.

N#CC[C@]1(n2cc(-c3ncnc4[nH]ccc34)cn2)C[C@H](N2CCC(Oc3cc(CN4CC(O)C4)cc(C(F)(F)F)n3)CC2)C1 and N#CC[C@]1(n2cc(-c3ncnc4[nH]ccc34)cn2)C[C@H](N2CCC(Oc3cc(CCO)cc(C(F)(F)F)n3)CC2)C1 cannot be ordered by IC50: < 0.01 µM for the first, < 0.01 µM for the second.

N#CCC1(n2cc(-c3ncnc4[nH]ccc34)cn2)CN(C2CCN(C(=O)Nc3ccc(F)cc3C(F)(F)F)CC2)C1 and N#CCC1(n2cc(-c3ncnc4[nH]ccc34)cn2)CN(C2CCN(C(=O)c3ccnc(C(F)(F)F)c3F)CC2)C1 [ITACITINIB] cannot be ordered by IC50: < 0.01 µM for the first, < 0.01 µM for the second.

C[C@H](O)CNCc1cc(OC2CCN([C@H]3C[C@](CC#N)(n4cc(-c5ncnc6[nH]ccc56)cn4)C3)CC2)nc(C(F)(F)F)c1 and C[C@@H](O)CNCc1cc(OC2CCN([C@H]3C[C@](CC#N)(n4cc(-c5ncnc6[nH]ccc56)cn4)C3)CC2)nc(C(F)(F)F)c1 cannot be ordered by IC50: < 0.01 µM for the first, < 0.01 µM for the second.

N#CCC1(n2cc(-c3ncnc4[nH]ccc34)cn2)CN(C2CCN(C(=O)c3ccnc(C(F)(F)F)n3)CC2)C1 and N#CC[C@]1(n2cc(-c3ncnc4[nH]ccc34)cn2)C[C@H](N2CCN(C(=O)c3ccnc(C(F)(F)F)n3)CC2)C1 cannot be ordered by IC50: < 0.01 µM for the first, < 0.01 µM for the second.

CC(C)(O)c1cc(O[C@H]2CC[C@@H](N3CC(CC#N)(n4cc(-c5ncnc6[nH]ccc56)cn4)C3)CC2)nc(C(F)(F)F)c1 and N#CCC1(n2cc(-c3ncnc4[nH]ccc34)cn2)CN([C@H]2CC[C@@H](Oc3cc(CN4CC[C@@H](O)C4)cc(C(F)(F)F)n3)CC2)C1 cannot be ordered by IC50: < 0.01 µM for the first, < 0.01 µM for the second.

N#CCC(CN1CCN(C(=O)c2ccc(C#N)cc2F)CC1)n1ccc(-c2ncnc3[nH]ccc23)c1 (stereo unspecified) and N#CCC(C1CCN(c2cccc(Cl)n2)C1)n1cc(-c2ncnc3[nH]ccc23)cn1 (single isomer, unassigned) cannot be ordered by IC50: < 0.01 µM for the first, < 0.01 µM for the second.

C[C@H](NC(=O)c1cc(F)c(N2CC(CC#N)(n3cc(-c4ncnc5[nH]ccc45)cn3)C2)cc1F)C(F)(F)F and C[C@@H](CO)NCc1cc(OC2CCN([C@H]3C[C@](CC#N)(n4cc(-c5ncnc6[nH]ccc56)cn4)C3)CC2)nc(C(F)(F)F)c1 cannot be ordered by IC50: < 0.01 µM for the first, < 0.01 µM for the second.

C[C@@H](O)c1nc2cnc3ccsc3c2n1[C@H]1CC[C@H](CC#N)OC1 and N#CCC(C1CCN(c2nc3cccnc3o2)C1)n1cc(-c2ncnc3[nH]ccc23)cn1 (stereo unspecified) cannot be ordered by IC50: < 0.1 µM for the first, < 0.01 µM for the second.

N#CCC1(n2cc(-c3ncnc4[nH]ccc34)cn2)CN([C@H]2CC[C@@H](Oc3cc(CN4CC[C@H](O)C4)cc(C(F)(F)F)n3)CC2)C1 (single isomer, unassigned) and N#CC[C@]1(n2cc(-c3ncnc4[nH]ccc34)cn2)C[C@H](N2CCC(Oc3cc(CN4CCC[C@H]4CO)cc(C(F)(F)F)n3)CC2)C1 cannot be ordered by IC50: < 0.01 µM for the first, < 0.01 µM for the second.

biological target: T1, Phosphatidylinositol 4,5-bisphosphate 3-kinase catalytic subunit delta isoform (Homo sapiens, UniProt O00329); experiment: PI3K Delta Assay: In some embodiments, the PI3Kδ inhibitor is selective. By ¿selective¿ is meant that the compound binds to or inhibits a kinase with greater affinity or potency, respectively, compared to at least one other kinase. In some embodiments, the PI3Kδ inhibitors are selective inhibitors of PI3Kδ (e.g., over PI3Kα, PI3Kβ and PI3Kγ). In some embodiments, selectivity can be at least about 2-fold, 5-fold, 10-fold, at least about 20-fold, at least about 50-fold, at least about 100-fold, at least about 200-fold, at least about 500-fold or at least about 1000-fold. Selectivity can be measured by methods routine in the art. In some embodiments, selectivity can be tested at the Km ATP concentration of each enzyme. In some embodiments, the selectivity of compounds described herein can be determined by cellular assays associated with particular PI3K kinase activity.
T1 sequence (O00329 whole entry): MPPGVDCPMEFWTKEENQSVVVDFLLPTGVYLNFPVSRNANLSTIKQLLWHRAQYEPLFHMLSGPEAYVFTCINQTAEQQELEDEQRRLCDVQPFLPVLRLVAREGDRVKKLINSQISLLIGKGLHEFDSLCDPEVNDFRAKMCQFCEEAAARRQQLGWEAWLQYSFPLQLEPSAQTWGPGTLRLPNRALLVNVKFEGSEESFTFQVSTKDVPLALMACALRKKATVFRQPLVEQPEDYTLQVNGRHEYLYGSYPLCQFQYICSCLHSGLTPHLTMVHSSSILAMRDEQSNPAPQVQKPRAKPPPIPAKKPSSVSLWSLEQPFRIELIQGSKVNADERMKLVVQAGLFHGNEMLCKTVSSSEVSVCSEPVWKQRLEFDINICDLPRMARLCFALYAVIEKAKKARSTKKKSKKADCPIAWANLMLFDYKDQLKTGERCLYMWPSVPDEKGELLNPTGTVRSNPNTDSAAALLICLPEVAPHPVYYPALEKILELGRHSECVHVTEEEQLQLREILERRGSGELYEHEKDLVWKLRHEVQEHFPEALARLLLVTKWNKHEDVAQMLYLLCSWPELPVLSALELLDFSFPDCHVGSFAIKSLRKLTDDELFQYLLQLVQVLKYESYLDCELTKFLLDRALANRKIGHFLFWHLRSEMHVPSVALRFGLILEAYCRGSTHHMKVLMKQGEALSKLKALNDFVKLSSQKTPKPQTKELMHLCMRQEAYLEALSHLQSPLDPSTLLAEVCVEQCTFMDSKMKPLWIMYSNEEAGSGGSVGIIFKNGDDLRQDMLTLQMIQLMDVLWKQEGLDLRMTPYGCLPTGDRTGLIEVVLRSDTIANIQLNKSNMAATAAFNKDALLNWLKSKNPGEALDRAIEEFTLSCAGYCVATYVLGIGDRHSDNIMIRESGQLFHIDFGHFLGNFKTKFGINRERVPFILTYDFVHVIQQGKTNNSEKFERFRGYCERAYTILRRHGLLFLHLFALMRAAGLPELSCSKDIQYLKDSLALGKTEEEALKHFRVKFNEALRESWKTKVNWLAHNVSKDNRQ

With CCOc1c(C(C)n2nc(C)c3c(N)ncnc32)cc(C)c(C#N)c1-c1ccc(C(=O)N(C)C)nc1 (stereo unspecified) the IC50 was < 0.05 µM.
